# “And” between values parts separate entries of the source, which are not always exact repeats. Equal values may be shown once. Read-outs that look alike come from different tables or passages of the source. Ends that are not written are not given here.
# What was measured:
# [1] = test system: Pseudomonas aeruginosae NCTC 6749; experiment: microbe, parasite or virus in culture; type: cell-based; settings: for MIC P. aeruginosae: broth microdilution (CLSI), Mueller–Hinton broth, 37 °C, peptide 0.125 to […], no visible growth, triplicate
# Procedure: (§1) Antimicrobial activity of peptides was examined against three reference strains: Staphylococcus aureus NCTC 4163, Escherichia coli NCTC 8196 and Pseudomonas aeruginosae NCTC 6749 dedicated for the determination of antibacterial activity. The bacterial strains were stored in glycerol stock (Sigma-Aldrich, St. Louis, MO, USA) at −80 °C. Before testing, the strains were cultured aerobically in Tryptic Soy Agar (BD DIFCO, Franklin Lakes, NJ, USA) at 37 °C for 20 h. The susceptibility of microorganisms to the peptides was determined by the broth microdilution assay according to the procedures outlined by CLSI [49]. […] In order to prepare the bacterial suspension, an overnight culture of bacteria in Tryptic Soy Broth (BD DIFCO, Franklin Lakes, NJ, USA) was diluted in sterile saline to a final concentration of approximately 10^7 CFU/mL of bacteria. Aliquots (5 µL) of bacterial suspension were added to each peptide solution. The sterility control (containing the tested peptide in broth) and the growth control (containing the reference strain in broth without the tested peptide) were also set up. The plates were incubated at 37 °C under aerobic conditions. The results are expressed as the minimal inhibitory concentration (MIC) of the compounds in question. The MIC was defined as the lowest concentration at which no visible growth of bacteria (no turbidity) was observed. The assay was performed in triplicate.
# [2] = Circular dichroism spectroscopy, relative α-helix fraction; type: physicochemical; settings: CD, peptide 0.15 mg/mL, 25 °C, three scans averaged; for Relative α-helix fraction (fH), 0.1 M Tris + 50 mM SDS: 0.1 M Tris buffer pH 7.01 + 50 mM SDS, from mean residue ellipticity at 222 nm; for Relative α-helix fraction (fH), 50% TFE / Relative α-helix fraction (fH), water: from mean residue ellipticity at 222 nm (Rohl and Baldwin)
# Procedure: Circular dichroism spectroscopy was applied to evaluate the conformational changes of peptides induced by membrane-mimetic environments. The secondary structures of MP and some of its MP analogs (Table 4) were determined in water, 50% 2,2,2-trifluoroethanol (TFE) and 0.1 M Tris buffer with the addition of 50 mM SDS. The relative α-helix fraction (fH) values presented in Table 4, calculated from the values of mean residue ellipticity at 222 nm, reflect the ability of peptides to adopt helical structure in the tested environments.
# Circular dichroism (CD) spectra of peptides were recorded on a Jasco J-815 spectropolarimeter (Jasco Int. Co., Ltd., Tokyo, Japan). The CD spectra were acquired for peptides in a concentration of 0.15 mg/mL in water, 50% 2,2,2-trifluoroethanol (TFE) or 0.1 M tris(hydroxymethyl)aminomethane (Tris) buffer (pH 7.01) with the addition of 50 mM SDS (sodium dodecylsulphate) in 0.1 cm path length cuvettes. Measurements were taken at 25 °C in a spectral range of 193–260 nm with a bandwidth of 1 nm and response of 1 s. The spectra were averaged after three scans. Ellipticity was measured in mdeg units and converted to mean residue ellipticity (Θ). The relative helix content (fH) was calculated from the mean residue ellipticity values at 222 nm using the method proposed by Rohl and Baldwin [50] and described previously. Helical wheel projections (Figure 3) were made with HeliQuest https://heliquest.ipmc.cnrs.fr/ (accessed on 1 June 2022).
# [3] = test system: Staphylococcus aureus NCTC 4163; experiment: microbe, parasite or virus in culture; type: cell-based; settings: for MIC S. aureus: peptide 0.125 to […], no visible growth; for MIC: read-out: MIC S. aureus
# Procedure: as §1
# [4] = test system: Escherichia coli NCTC 8196; experiment: microbe, parasite or virus in culture; type: cell-based; settings: for MIC E. coli: peptide 0.125 to […], no visible growth
# Procedure: as §1
# [5] = broth microdilution (CLSI), Mueller–Hinton broth, 37 °C, triplicate
# [6] = same MIC expressed as molar concentration, broth microdilution (CLSI), Mueller–Hinton broth, 37 °C, triplicate
compound,measurement,setting,value
"YKPITNF-NH2 [[Lys^2, Ile^4] RIP, reference compound]",MIC P. aeruginosae,[1],>256 µg/mL
"YKPITNFINLKALAALAKKIL-NH2 [[Lys^2, Ile^4] RIP-MP]",MIC P. aeruginosae,[1],>256 µg/mL
"GWTLNSAGYLLGPINLKALAALAKKIL-NH2 [Galp, galparan, reference compound]",MIC P. aeruginosae,[1],>256 µg/mL
"CC[C@H](C)[C@H](NC(=O)[C@H](CCCCN)NC(=O)[C@H](CCCCN)NC(=O)[C@H](C)NC(=O)[C@H](CC(C)C)NC(=O)[C@H](C)NC(=O)[C@H](C)NC(=O)[C@H](CC(C)C)NC(=O)[C@H](C)NC(=O)[C@H](CCCCN)NC(=O)[C@H](CC(C)C)NC(=O)[C@H](CC(N)=O)NC(=O)[C@@H](NC(=O)[C@H](CCCCN)NC(=O)CNC(=O)[C@H](CC(C)C)NC(=O)[C@H](CC(C)C)NC(=O)[C@H](Cc1ccc(O)cc1)NC(=O)CNC(=O)[C@H](C)NC(=O)[C@H](CO)NC(=O)[C@H](CC(N)=O)NC(=O)[C@H](CC(C)C)NC(=O)[C@@H](NC(=O)[C@H](Cc1c[nH]c2ccccc12)NC(=O)CN)[C@@H](C)O)[C@@H](C)CC)C(=O)N[C@@H](CC(C)C)C(N)=O [TP, transportan, reference compound]",MIC P. aeruginosae,[1],>256 µg/mL
"KALAALAKKILYKPITNF-NH2 [MP (4–14)-[Lys^2, Ile^4] RIP]",MIC P. aeruginosae,[1],>256 µg/mL
INLKALAALAKKILLIKKALAALAKLNI-NH2 [MP-retroMP],"Relative α-helix fraction (fH), 0.1 M Tris + 50 mM SDS",[2],0.17
same,"Relative α-helix fraction (fH), 50% TFE",[2],0.23–0.24 and 0.24
same,"Relative α-helix fraction (fH), water",[2],0.04
same,MIC S. aureus,[3]; [5],>256 µg/mL
same,MIC P. aeruginosae,[1],>256 µg/mL
same,MIC E. coli,[4]; [5],>256 µg/mL
CC[C@H](C)[C@H](NC(=O)[C@H](CCCCN)NC(=O)[C@H](CCCCN)NC(=O)[C@H](C)NC(=O)[C@H](CC(C)C)NC(=O)[C@H](C)NC(=O)[C@H](C)NC(=O)[C@H](CC(C)C)NC(=O)[C@H](C)NC(=O)[C@H](CCCCN)NC(=O)[C@H](CC(C)C)NC(=O)[C@H](CC(N)=O)NC(=O)[C@@H](NC(=O)[C@H](CCCCNC(=O)Cn1c(-c2ccccc2Cl)nc2ccccc21)NC(=O)CNC(=O)[C@H](CC(C)C)NC(=O)[C@H](CC(C)C)NC(=O)[C@H](Cc1ccc(O)cc1)NC(=O)CNC(=O)[C@H](C)N)[C@@H](C)CC)C(=O)N[C@@H](CC(C)C)C(N)=O [[Lys^7 (ClBnzAc)] TP10],MIC S. aureus,[3]; [5],>256 µg/mL
same,MIC P. aeruginosae,[1],>256 µg/mL
same,MIC E. coli,[4]; [5],>256 µg/mL
CC[C@H](C)[C@H](NC(=O)[C@H](CCCCN)NC(=O)[C@H](CCCCN)NC(=O)[C@H](C)NC(=O)[C@H](CC(C)C)NC(=O)[C@H](C)NC(=O)[C@H](C)NC(=O)[C@H](CC(C)C)NC(=O)[C@H](C)NC(=O)[C@H](CCCCN)NC(=O)[C@H](CC(C)C)NC(=O)[C@H](CC(N)=O)NC(=O)[C@@H](NC(=O)[C@H](CCCCNC(=O)Cn1c(-c2ccccn2)nc2ccccc21)NC(=O)CNC(=O)[C@H](CC(C)C)NC(=O)[C@H](CC(C)C)NC(=O)[C@H](Cc1ccc(O)cc1)NC(=O)CNC(=O)[C@H](C)N)[C@@H](C)CC)C(=O)N[C@@H](CC(C)C)C(N)=O [[Lys^7 (PBnzAc)] TP10],"Relative α-helix fraction (fH), 0.1 M Tris + 50 mM SDS",[2],0.32
same,"Relative α-helix fraction (fH), 50% TFE",[2],0.51
same,"Relative α-helix fraction (fH), water",[2],0.14–0.19 and 0.15
same,MIC S. aureus,[3]; [5],>256 µg/mL
same,MIC P. aeruginosae,[1],>256 µg/mL
same,MIC E. coli,[4]; [5],>256 µg/mL
KALAALAKKIL-NH2 [MP (4–14)],MIC P. aeruginosae,[1],>256 µg/mL
CC[C@H](C)[C@H](NC(=O)[C@H](CCCCN)NC(=O)[C@H](CCCCN)NC(=O)[C@H](C)NC(=O)[C@H](CC(C)C)NC(=O)[C@H](C)NC(=O)[C@H](C)NC(=O)[C@H](CC(C)C)NC(=O)[C@H](C)NC(=O)[C@H](CCCCN)NC(=O)[C@H](CC(C)C)NC(=O)[C@H](CC(N)=O)NC(=O)[C@@H](NC(=O)[C@H](CCCCNC(=O)Cn1cnc2ccccc21)NC(=O)CNC(=O)[C@H](CC(C)C)NC(=O)[C@H](CC(C)C)NC(=O)[C@H](Cc1ccc(O)cc1)NC(=O)CNC(=O)[C@H](C)N)[C@@H](C)CC)C(=O)N[C@@H](CC(C)C)C(N)=O [[Lys^7 (BnzAc)] TP10],MIC S. aureus,[3]; [5],256 µg/mL
same,MIC P. aeruginosae,[1],>256 µg/mL
same,MIC E. coli,[4]; [5],>256 µg/mL
"CC[C@H](C)[C@H](N)C(=O)N[C@@H](CC(N)=O)C(=O)N[C@@H](CC(C)C)C(=O)N[C@@H](CCCCN)C(=O)N[C@@H](C)C(=O)N[C@@H](CC(C)C)C(=O)N[C@@H](C)C(=O)N[C@@H](C)C(=O)N[C@@H](CC(C)C)C(=O)N[C@@H](C)C(=O)N[C@@H](CCCCN)C(=O)N[C@@H](CCCCN)C(=O)N[C@H](C(=O)N[C@@H](CC(C)C)C(N)=O)[C@@H](C)CC [MP, mastoparan]",MIC,[3]; [6],5.4 µM
same,MIC P. aeruginosae,[1],256 µg/mL
same,MIC,[4]; [6],21.6 µM
"CNC(C)C1CCC(N)C(OC2C(N)CC(N)C(OC3OCC(C)(O)C(NC)C3O)C2O)O1 (stereo not drawn) [Gentamicin, gentamicin, reference compound]",MIC,"[3]; Staphylococcus aureus, NCTC4163",0.5 µg/mL
same,MIC,"[3]; Staphylococcus aureus, NCTC4163, same MIC expressed as molar concentration, broth microdilution (CLSI), Mueller–Hinton broth, 37 °C, triplicate",1.1 µM
same,MIC,"[1]; Pseudomonas, NCTC6749, read-out: MIC P. aeruginosae",0.25 µg/mL
same,MIC,"[4]; Escherichia coli, NCTC8196",1 µg/mL
same,MIC,"[4]; Escherichia coli, NCTC8196, same MIC expressed as molar concentration, broth microdilution (CLSI), Mueller–Hinton broth, 37 °C, triplicate",2.1 µM
"INLKALAALAKKILYKPITNF-NH2 [MP-[Lys^2, Ile^4] RIP]",MIC P. aeruginosae,[1],>256 µg/mL
"CC[C@H](C)[C@H](NC(=O)[C@H](CCCCN)NC(=O)[C@H](CCCCN)NC(=O)[C@H](C)NC(=O)[C@H](CC(C)C)NC(=O)[C@H](C)NC(=O)[C@H](C)NC(=O)[C@H](CC(C)C)NC(=O)[C@H](C)NC(=O)[C@H](CCCCN)NC(=O)[C@H](CC(C)C)NC(=O)[C@H](CC(N)=O)NC(=O)[C@@H](NC(=O)[C@H](CCCCN)NC(=O)CNC(=O)[C@H](CC(C)C)NC(=O)[C@H](CC(C)C)NC(=O)[C@H](Cc1ccc(O)cc1)NC(=O)CNC(=O)[C@H](C)N)[C@@H](C)CC)C(=O)N[C@@H](CC(C)C)C(N)=O [TP10, transportan 10, reference compound]",MIC P. aeruginosae,[1],256 µg/mL
"AGYLLGINLKALAALAKKILYKPITNF-NH2 [[desLys^7] TP10-[Lys^2, Ile^4] RIP]",MIC P. aeruginosae,[1],>256 µg/mL
KALAALAKKILYSPWTNF-NH2 [MP (4–14)-RIP],MIC P. aeruginosae,[1],>256 µg/mL
CCCCCCCCCc1nc2ccccc2n1CC(=O)NCCCC[C@H](NC(=O)CNC(=O)[C@H](CC(C)C)NC(=O)[C@H](CC(C)C)NC(=O)[C@H](Cc1ccc(O)cc1)NC(=O)CNC(=O)[C@H](C)N)C(=O)N[C@H](C(=O)N[C@@H](CC(N)=O)C(=O)N[C@@H](CC(C)C)C(=O)N[C@@H](CCCCN)C(=O)N[C@@H](C)C(=O)N[C@@H](CC(C)C)C(=O)N[C@@H](C)C(=O)N[C@@H](C)C(=O)N[C@@H](CC(C)C)C(=O)N[C@@H](C)C(=O)N[C@@H](CCCCN)C(=O)N[C@@H](CCCCN)C(=O)N[C@H](C(=O)N[C@@H](CC(C)C)C(N)=O)[C@@H](C)CC)[C@@H](C)CC [[Lys^7 (NBnzAc)] TP10],MIC S. aureus,[3]; [5],>256 µg/mL
same,MIC P. aeruginosae,[1],>256 µg/mL
same,MIC E. coli,[4]; [5],>256 µg/mL
